Laboratory results from patent publication US11752111B2, “Use of cannabidivarin in the treatment of autism spectrum disorder, associated disorders and schizophrenia” (GW Research Limited, priority 2016, dated 2023).

Key:
Format in all cases: in vivo, mouse
MeCP2 KO mice [1] = assay: Novel Object Recognition test, short- and long-term memory, Rett syndrome model
Experimental: Furthermore, the efficacy of CBDV in reverting/attenuating the short- and long-term memory deficits present in these mice was evaluated. The Novel Object Recognition (NOR) test was performed before the starting of the treatment Post Natal Day 28 (PND 28), at PND 41 when the first motor symptoms appear and at PND 56 and 66 when the disease is fully manifested.
At PND 28, 41, 56 and 66 the effect of CBDV on short- and long-term memory deficits was investigated through the Novel Object Recognition (NOR) test.
The experimental apparatus used for the Novel Object Recognition test was an open-field box (43×43×32 cm) made of Plexiglas, placed in a dimly illuminated room. Animals performed each test individually.
Briefly, each animal was placed in the arena and allowed to explore two identical previously unseen objects for 10 minutes (familiarization phase). After an inter-trial interval of 30 minutes and 24 hours one of the two familiar objects was replaced by a novel, previously unseen object and mice were returned to the arena for the 10-minute test phase.
During the test phase the time spent exploring the familiar object (Ef) and the new object (En) was recorded separately by two observers blind to the groups and the discrimination index was calculated as follows: [(En−Ef)/(En+Ef)]×100.

Ube3am-/p+ (AS) mice [2] = assay: Clasping test in Angelman syndrome model; conditions: CBDV 20 mg/kg i.p. chronic treatment (30 days); AS mice at 10 weeks of age vs AS vehicle
Experimental: (§1) Heterozygous mice with maternal deficiency of Ube3A (Ube3am−/p+) and wild type (Ube3am+/p+) were purchased from The Jackson Laboratory (Jackson code: B6.129S7-Ube3a tm1Alb/J) and maintained in a C57BL/6 background.
Drugs were dissolved in 1:1:18 ethanol:cremophor:0.9% saline, for intraperitoneal (i.p.) administration. […] CBDV was administered at 20 mg/kg.
Clasping: The clasping test assesses ataxia in mice. Mice were suspended by the base of the tail and their behaviours were recorded for 30 seconds. The time for which the mice clasped their hind limbs was recorded. The time was then scored as follows: 4, 15-30 s, 3, 10-15 s, 2, 5-10 s, 1, 0-5 s and 0,0 s

Ube3am-/p+ (AS) mice [3] = assay: Audiogenic seizure susceptibility in Angelman syndrome model
Experimental: as §1
For the audiogenic seizure tests CBDV was administered at 20, 200 and 400 mg/kg.
Seizure susceptibility: Audiogenic seizures were induced by vigorously scraping scissors across the metal grating of the cage lid which produces a 100 DB high frequency loud noise. This was done for 20 seconds. This test consists of 3 phases. In phase 1 all mice were tested for epilepsy. In phase 2 all mice were injected daily with either vehicle or a drug for 7 or 10 days. In phase 3 mice were tested for epilepsy (one hour after last injection).

Ube3am-/p+ (AS) mice [4] = assay: Rotarod test in Angelman syndrome model; conditions: CBDV 20 mg/kg i.p. chronic treatment (30 days); AS mice vs AS vehicle
Experimental: as §1
Drugs were dissolved in 1:1:18 ethanol:cremophor:0.9% saline, for intraperitoneal (i.p.) administration. Drug treatment was performed daily for 35 days. CBDV was administered at 20 mg/kg.
Rotarod: The rotarod test assesses balance and motor coordination of mice. Mice have been measured for the time (in seconds) of equilibrium before falling on a rotary cylinder by a magnet that, activated from the fall of the mouse on the plate, allows to record the time of permanence on the cylinder. […] The animals were analysed by 2 separate tests at 1-h interval in the same day.

MeCP2 KO mice [5] = assay: Symptom scoring in Rett syndrome model
Experimental: CBDV was administered daily at the dose of 2, 20 and 200 mg/kg i.p. starting from PND 28 and the following signs were scored every other day: hindlimb clasping (indication of motor imbalance), tremor, gait (measure of coordination), breathing, mobility and general condition.
Starting from PND 28, mice received a daily intraperitoneal injection of CBDV (or vehicle) at the dose of 2, 20 and 200 mg/kg. Animals were then scored every other day to evaluate the effect of CBDV treatment on motor symptoms (hindlimb clasping, gait, mobility) as well as neurological signs and general conditions (breathing abnormalities, tremors and general condition) present in MeCP2 knockout (KO) mice.
Each of the six symptoms was scored from 0 to 2 (0 corresponds to the symptom being absent or the same as in the wild type (WT) animal; 1 when the symptom was present; 2 when the symptom was severe).
Mobility: the mouse is observed when placed on bench, then when handled gently. 0=as WT. 1=reduced movement when compared with WT: extended freezing period when first placed on bench and longer periods spent immobile. 2=no spontaneous movement when placed on the bench; mouse can move in response to a gentle prod or a food pellet placed nearby.
Gait: 0=as WT. 1=hind legs are spread wider than WT when walking or running with reduced pelvic elevation, resulting in a ‘waddling’ gait. 2=more severe abnormalities: tremor when feet are lifted, walks backward or ‘bunny hops’ by lifting both rear feet at once.
Hindlimb clasping: mouse observed when suspend by holding base of the tail. 0=legs splayed outward. 1=hindlimbs are drawn toward each other (without touching) or one leg is drawn into the body. 2=both legs are pulled in tightly, either touching each other or touching the body.
Tremor: mouse observed while standing on the flat palm of the hand. 0=no tremor. 1=intermittent mild tremor. 2=continuous tremor or intermittent violent tremor.
Breathing: movement of flanks observed while animal is standing still. 0=normal breathing. 1=periods of regular breathing interspersed with short periods of more rapid breathing or with pauses in breathing. 2=very irregular breathing-gasping or panting.
General condition: mouse observed for indicators of general well-being such as coat condition, eyes and body stance. 0=clean shiny coat, clear eyes, and normal stance. 1=eyes dull, coat dull/un-groomed, and somewhat hunched stance. 2=eyes crusted or narrowed, piloerection, and hunched posture.

In the case of `C=C(C)[C@@H]1CCC(C)=C[C@H]1c1c(O)cc(CCC)cc1O` [CBDV, Cannabidivarin], the “long-term memory in the NOR test (FIG. 10)” value (MeCP2 KO mice [1]; 2, 20 and 200 mg/kg, 24 hours inter-trial interval, KO mice) is reported as “significantly counteract the cognitive impairment”, the “short-term memory in the NOR test (FIG. 9)” value (MeCP2 KO mice [1]; 2, 20 and 200 mg/kg, each time point (PND 41, 56, 66), 30 min inter-trial interval, KO mice) is reported as “significantly reverted the cognitive impairment” and the “long-term recognition memory in the NOR test (FIG. 10)” value (MeCP2 KO mice [1]; WT littermates) is reported as “without affecting recognition memory”. The “short-term recognition memory in the NOR test (FIG. 9)” value (MeCP2 KO mice [1]; WT littermates) was “without affecting recognition memory”, the “clasping duration (FIG. 11)” value (Ube3am-/p+ (AS) mice [2]) was “significantly reduced clasping duration” and the “seizure susceptibility, number of mice with seizures vs baseline (FIG. 15)” value (Ube3am-/p+ (AS) mice [3]; 20 mg/kg or 200 mg/kg, 7 or 10 days treatment) was “no effect”. For the same compound, the “number of mice with seizures (FIG. 15)” value (Ube3am-/p+ (AS) mice [3]; 400 mg/kg) was “statistically significant decrease”, the “latency to fall, rotarod (FIG. 12)” value (Ube3am-/p+ (AS) mice [4]) was “reduced latency to fall” and the “total symptom score (FIG. 8)” value (MeCP2 KO mice [5]; 2 mg/kg, PND 45, 47, 49, 55, 56, 57, 58, 60 and 64, KO mice) was “significantly improved total symptom score at every time point”. The “breathing score (FIG. 6B)” value (MeCP2 KO mice [5]; 2 mg/kg, PND 56 to 60, KO mice) was “significantly improve breathing”, the “tremor score (FIG. 6A)” value (MeCP2 KO mice [5]; 2 mg/kg, PND 63, KO mice) was “still protective” and the “general conditions (coat and eyes) (FIG. 7A)” value (MeCP2 KO mice [5]; 20 mg/kg, KO mice) was “significantly effective only at the earlier time point (PND 52)”. The “breathing score (FIG. 6B)” value (MeCP2 KO mice [5]; 20 mg/kg, PND 57, KO mice) was “significant effect”, the “hindlimb clasping score (FIG. 6C)” value (MeCP2 KO mice [5]; 200 mg/kg, KO mice) was “did not significantly affect” and the “total symptom score (FIG. 8)” value (MeCP2 KO mice [5]; 200 mg/kg, KO mice) was “exerted beneficial effect at a later time point (PND 47) and its protective effect was evident until PND 58”. The “gait score (FIG. 6D)” value (MeCP2 KO mice [5]; 200 mg/kg, PND 53 to 57, KO mice) was “significantly improved gait”, the “tremor score (FIG. 6A)” value (MeCP2 KO mice [5]; 200 mg/kg, PND 55 and 63, KO mice) was “still able to reduce tremors” and the “breathing score (FIG. 6B)” value (MeCP2 KO mice [5]; 200 mg/kg, PND 57 and 60, KO mice) was “effective”. For the same compound, the “general conditions (coat and eyes) (FIG. 7A)” value (MeCP2 KO mice [5]; 2 and 200 mg/kg, PND 52-64, KO mice) was “significantly improved”, the “mobility score (FIG. 7B)” value (MeCP2 KO mice [5]; KO mice) was “reached statistical significance only at PND 64” and the “total symptom score (FIG. 8)” value (MeCP2 KO mice [5]; all three doses, KO mice vs KO-vehicle) was “delay and attenuate the appearance of the phenotype”. The “tremor score (FIG. 6A)” value (MeCP2 KO mice [5]; all three doses, PND 45-49, KO mice) was “significantly delaying and reducing tremors” and the “hindlimb clasping score (FIG. 6C)” value (MeCP2 KO mice [5]; lower doses (2, 20 mg/kg), PND 47 and 49, KO mice) was “significantly attenuate hindlimb clasping”.
